Laboratory results as given in US12121581B2, “Method of photodynamic therapy” (OSLO UNIVERSITETSSYKEHUS HF, priority 2018, dated 2024).

What was measured:
U87 cells = assay: LUMIBLAST cell viability, MTT assay; format: cell-based
Protocol: Efficiency of the luminol derivatives was investigated. The initial derivative tested was HD92 (also referred to herein as “AP47”). U87 cells were inoculated in 96 well plates. The cells were then divided into the following groups (at least 6 parallels per group): CTRL (media only), ALA CTRL (2 mM), HD92 CTRL (500 μM) and the LUMIBLAST group (2 mM 5-ALA and 500 μM HD92). Correspondingly, MCF7 cells were inoculated in 96 well plates and left to grow overnight. The cells were then divided into the following groups (at least 6 parallels per group): CTRL (media only), Hypocrellin A CTRL (HYPA 7 μM), HD92 CTRL (500 μM) and the LUMIBLAST group (7 μM HYPA and 500 μM HD92). These four groups were incubated in media with and without 10 μM FeSO4 in the case of experiments with HYPA. […] In brief, all cell groups were incubated with 0.5 mg/mL MTT for 3 hours. The MTT media were subsequently replaced with DMSO (100 μL) to solubilise the formazan. The wells were read for absorbance at 562 nm using a Tecan Spark OM plate reader. The cytotoxicity was determined as the percentage of control (media only) absorbance following subtraction of blank values from wells without cells.
MCF7 and U87 cells were inoculated in 96 well plates. The cells were then divided into the following groups (at least 6 parallels per group): CTRL (media only), HYPA CTRL (3 μM), DZ168 CTRL (5, 10, 20 and 30 μM), and the LUMIBLAST combinations (3 μM HYPA+DZ168 5-30 μM). These cell group incubations were also repeated in media containing 100 μM CuSO4. […]
MCF7 and U87 cells were inoculated in 96 well plates. The cells were then divided into the following groups (at least 6 parallels per group):CTRL (media only), HYPA CTRL (5 μM), DZ167 CTRL (25-200 μM), and the LUMIBLAST combinations (5 μM HYPA+DZ167 25-200 μM). These incubations were performed in media containing 50 μM CuSO4. […]
The subcellular localisation of cercosporin together with that of synthesised derivatives DZ203 (short alkyl linker) and DZ196 (oligoPEG linker) was investigated. U87 cells were inoculated in 96 well plates. The cells were then divided into the following groups (at least 6 parallels per group). CTRL (media only), Cercosporin CTRL (3 μM), DZ203 CTRL (200 μM), DZ196 CTRL (500 μM) and the LUMIBLAST combinations (3 μM cercosporin+DZ203 200 μM or 3 μM cercosporin DZ196 500 μM). […]

MCF7 cells = assay: LUMIBLAST cell viability, MTT assay; format: cell-based
Protocol: (§1) Efficiency of the luminol derivatives was investigated. The initial derivative tested was HD92 (also referred to herein as “AP47”). U87 cells were inoculated in 96 well plates. The cells were then divided into the following groups (at least 6 parallels per group): CTRL (media only), ALA CTRL (2 mM), HD92 CTRL (500 μM) and the LUMIBLAST group (2 mM 5-ALA and 500 μM HD92). Correspondingly, MCF7 cells were inoculated in 96 well plates and left to grow overnight. The cells were then divided into the following groups (at least 6 parallels per group): CTRL (media only), Hypocrellin A CTRL (HYPA 7 μM), HD92 CTRL (500 μM) and the LUMIBLAST group (7 μM HYPA and 500 μM HD92). These four groups were incubated in media with and without 10 μM FeSO4 in the case of experiments with HYPA. Following incubation of the cells with their respective drug strategies overnight (˜20 hours), the cell groups were tested for their viability using a standard MTT assay. In brief, all cell groups were incubated with 0.5 mg/mL MTT for 3 hours. The MTT media were subsequently replaced with DMSO (100 μL) to solubilise the formazan. The wells were read for absorbance at 562 nm using a Tecan Spark OM plate reader. The cytotoxicity was determined as the percentage of control (media only) absorbance following subtraction of blank values from wells without cells.
MCF7 and U87 cells were inoculated in 96 well plates. The cells were then divided into the following groups (at least 6 parallels per group): CTRL (media only), HYPA CTRL (3 μM), DZ168 CTRL (5, 10, 20 and 30 μM), and the LUMIBLAST combinations (3 μM HYPA+DZ168 5-30 μM). These cell group incubations were also repeated in media containing 100 μM CuSO4. Following incubation of the cells with their respective drug strategies overnight (˜20 hours), the cell groups were tested for their viability using the MTT assay.

[1] = test system: MDA-MB-231 breast carcinoma cells; assay: LUMIBLAST cell viability, MTT assay; format: cell-based; settings: 1.2 mM 5-ALA + DZ203 400 μM, 100 μM CuSO4, ~20 hours
Protocol: as §1
MDA-MB-231 cells were inoculated in 96 well plates. […]

cells = settings: luminol together with transferrin-haematoporphyrin conjugates; cited from earlier work

## O=C(CCCCC[P+](c1ccccc1)(c1ccccc1)c1ccccc1)Nc1cccc2c(=O)[nH][nH]c(=O)c12.[Br-] [AP47, (6-((1,4-dioxo-1,2,3,4-tetrahydrophthalazin-5-yl)amino)-6-oxohexyl)triphenylphosphonium bromide]
U87 cells; U87, 2 mM 5-ALA and 500 μM HD92, ~20 hours, relative to HD92 control
  combinatory cytotoxic effect (MTT viability): combinatory cytotoxic effect is profoundly significant
U87 cells; U87, HD92 CTRL 500 μM, ~20 hours
  toxicity of the derivative alone (MTT viability): sub-toxic but very near the margins of chemical toxicity
MCF7 cells; 7 μM HYPA and 500 μM HD92, 10 μM FeSO4, ~20 hours, relative to HD92 control
  combinatory cytotoxic effect (MTT viability): combinatory cytotoxic effect is profoundly significant
MCF7 cells; HD92 CTRL 500 μM, ~20 hours
  toxicity of the derivative alone (MTT viability): sub-toxic but very near the margins of chemical toxicity

## NCC(=O)CCC(=O)O [Compound 5-ALA, 5-aminolevulinic acid, reference compound]
U87 cells; 2 mM 5-ALA with 500 μM HD92 in U87, compared with HYPA in MCF7 with FeSO4
  efficiency of photosensitizer in producing LUMIBLAST effects: less efficient in producing LUMIBLAST effects than HYPA

## O=c1[nH][nH]c(=O)c2c(NCCCCCC[P+](c3ccccc3)(c3ccccc3)c3ccccc3)cccc12.[I-] [DZ167, (6-((1,4-dioxo-1,2,3,4-tetrahydrophthalazin-5-yl)amino)hexyl)triphenylphosphonium iodide]
U87 cells; U87, 200 μM DZ167, 5 μM HYPA and 50 μM CuSO4, ~20 hours
  LUMIBLAST effect (MTT viability): synergistic effect

## O=c1[nH][nH]c(=O)c2c(NCCCCCCCCCC[P+](c3ccccc3)(c3ccccc3)c3ccccc3)cccc12.[I-] [DZ168, (10-((1,4-dioxo-1,2,3,4-tetrahydrophthalazin-5-yl)amino)decyl)triphenylphosphonium iodide]
U87 cells; U87, 3 μM HYPA + DZ168 5-30 μM, 100 μM CuSO4, ~20 hours
  toxicity (MTT viability): not affected
MCF7 cells; 3 μM HYPA + DZ168 5-30 μM, 100 μM CuSO4, ~20 hours
  toxicity (MTT viability): enhanced toxicity

## O=c1[nH][nH]c(=O)c2c(NCCOCCOCC[P+](c3ccccc3)(c3ccccc3)c3ccccc3)cccc12.[I-] [DZ196, (2-(2-(2-((1,4-dioxo-1,2,3,4-tetrahydrophthalazin-5-yl)amino)ethoxy)ethoxy)ethyl)triphenylphosphonium iodide]
U87 cells; U87, 3 μM cercosporin + DZ196 500 μM, without Cu
  LUMIBLAST effect (MTT viability): smaller effect

## O=c1[nH][nH]c(=O)c2c(NCCC[P+](c3ccccc3)(c3ccccc3)c3ccccc3)cccc12.[I-] [DZ203, (3-((1,4-dioxo-1,2,3,4-tetrahydrophthalazin-5-yl)amino)propyl)triphenylphosphonium iodide]
[1]
  LUMIBLAST effect (MTT viability): substantial synergy
U87 cells; U87, 3 μM cercosporin + DZ203 200 μM, 24 hours, presence of Cu (150 μM)
  LUMIBLAST effect (MTT viability): very profound effect

## Nc1cccc2c(=O)[nH][nH]c(=O)c12 [luminol]
cells
  cytotoxicity: 95%
